The source made the active and inactive calls.

In assay [1] the target is T1, Caspase-3 (Homo sapiens, UniProt P42574).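 Further: Dose-response selectivity test against caspase-3 for candidate inhibitors of sentrin-specific proteases (SENPs).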
T1 sequence (P42574 whole entry): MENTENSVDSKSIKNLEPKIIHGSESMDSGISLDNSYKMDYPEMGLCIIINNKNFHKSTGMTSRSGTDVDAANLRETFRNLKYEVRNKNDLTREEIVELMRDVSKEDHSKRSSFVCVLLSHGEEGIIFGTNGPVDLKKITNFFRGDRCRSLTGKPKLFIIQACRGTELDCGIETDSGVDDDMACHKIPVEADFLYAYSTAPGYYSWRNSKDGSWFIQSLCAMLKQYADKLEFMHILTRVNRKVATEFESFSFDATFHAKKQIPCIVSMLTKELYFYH
It is filed as functional.

Assay [2] has as its target T2, Heat shock factor protein 1 (Mus musculus, UniProt P38532).
T2 sequence (P38532 whole entry): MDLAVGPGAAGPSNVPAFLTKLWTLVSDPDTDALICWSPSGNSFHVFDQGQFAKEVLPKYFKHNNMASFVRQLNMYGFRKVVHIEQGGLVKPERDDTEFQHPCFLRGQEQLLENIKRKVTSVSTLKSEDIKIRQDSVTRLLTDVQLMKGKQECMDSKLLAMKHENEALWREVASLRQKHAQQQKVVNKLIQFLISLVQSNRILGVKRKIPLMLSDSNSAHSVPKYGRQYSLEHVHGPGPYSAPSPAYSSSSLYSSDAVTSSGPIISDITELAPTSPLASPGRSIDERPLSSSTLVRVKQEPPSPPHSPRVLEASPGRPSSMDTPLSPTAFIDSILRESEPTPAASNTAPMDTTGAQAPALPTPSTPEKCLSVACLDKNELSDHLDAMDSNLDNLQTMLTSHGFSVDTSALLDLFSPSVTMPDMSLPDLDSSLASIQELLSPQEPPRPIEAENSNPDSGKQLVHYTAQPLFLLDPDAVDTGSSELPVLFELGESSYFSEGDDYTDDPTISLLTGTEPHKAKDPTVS
Nature of the assay: HSF1 potentiators in luciferase reporter cells, confirmation, cell-based, NIH3T3, luminescence, dose retest (AID 435004).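 Further: stress induced by proteasome inhibitor MG132 added 30 min after compound; luciferase reporter driven by HSF1 response element in NIH3T3 cells; actives raise luminescence as potentiators of the MG132 stress response.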 The format is functional. On the technique in general: A reporter such as luciferase makes a cellular process visible.

Assay [3] has as its target T3, Sentrin-specific protease 8 (Homo sapiens, UniProt Q96LD8).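 Further: luminescence read-out of SENP8 inhibition, dose-response confirmation following an ultra-high-throughput screen.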
T3 sequence (Q96LD8 whole entry): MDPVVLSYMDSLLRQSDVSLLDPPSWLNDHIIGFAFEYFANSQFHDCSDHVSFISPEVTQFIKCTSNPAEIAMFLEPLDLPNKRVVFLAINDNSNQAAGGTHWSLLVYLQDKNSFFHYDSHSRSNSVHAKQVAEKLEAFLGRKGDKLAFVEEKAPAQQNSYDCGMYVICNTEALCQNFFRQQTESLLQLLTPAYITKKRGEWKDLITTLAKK
It is filed as functional.

Assay [4] has as its target T4, Oxysterols receptor LXR-beta (Homo sapiens, UniProt P55055).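 Further: Cell-based luminescence dose-response assay of agonist activity at LXR, run as a confirmatory counterscreen to a daf-12 agonist screen; HEK293 cells with Gal4-LXR fusion and GAL4-driven luciferase reporter; agonist potency from rising luciferase signal of a Gal4-LXR reporter.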
T4 sequence (P55055 whole entry): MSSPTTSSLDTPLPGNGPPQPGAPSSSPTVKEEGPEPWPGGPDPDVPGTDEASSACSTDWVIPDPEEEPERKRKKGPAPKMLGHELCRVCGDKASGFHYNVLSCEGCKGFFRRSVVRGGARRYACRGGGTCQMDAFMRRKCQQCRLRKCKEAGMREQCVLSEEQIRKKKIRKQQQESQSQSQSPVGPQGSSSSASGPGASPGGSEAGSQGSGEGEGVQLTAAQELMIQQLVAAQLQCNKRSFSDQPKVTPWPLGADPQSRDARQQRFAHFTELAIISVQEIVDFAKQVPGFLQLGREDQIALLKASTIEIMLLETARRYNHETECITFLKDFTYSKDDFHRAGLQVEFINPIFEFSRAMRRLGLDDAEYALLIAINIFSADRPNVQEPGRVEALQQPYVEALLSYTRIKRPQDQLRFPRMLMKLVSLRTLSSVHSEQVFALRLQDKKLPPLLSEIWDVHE
The format is functional, cell-based.

Assay [5] has as its target T5, Sentrin-specific protease 7 (Homo sapiens, UniProt Q9BQF6).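 Further: Luminescence-based dose-response confirmation of ultra-high-throughput screening hits, measuring inhibition of SENP7.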
T5 sequence (Q9BQF6 whole entry): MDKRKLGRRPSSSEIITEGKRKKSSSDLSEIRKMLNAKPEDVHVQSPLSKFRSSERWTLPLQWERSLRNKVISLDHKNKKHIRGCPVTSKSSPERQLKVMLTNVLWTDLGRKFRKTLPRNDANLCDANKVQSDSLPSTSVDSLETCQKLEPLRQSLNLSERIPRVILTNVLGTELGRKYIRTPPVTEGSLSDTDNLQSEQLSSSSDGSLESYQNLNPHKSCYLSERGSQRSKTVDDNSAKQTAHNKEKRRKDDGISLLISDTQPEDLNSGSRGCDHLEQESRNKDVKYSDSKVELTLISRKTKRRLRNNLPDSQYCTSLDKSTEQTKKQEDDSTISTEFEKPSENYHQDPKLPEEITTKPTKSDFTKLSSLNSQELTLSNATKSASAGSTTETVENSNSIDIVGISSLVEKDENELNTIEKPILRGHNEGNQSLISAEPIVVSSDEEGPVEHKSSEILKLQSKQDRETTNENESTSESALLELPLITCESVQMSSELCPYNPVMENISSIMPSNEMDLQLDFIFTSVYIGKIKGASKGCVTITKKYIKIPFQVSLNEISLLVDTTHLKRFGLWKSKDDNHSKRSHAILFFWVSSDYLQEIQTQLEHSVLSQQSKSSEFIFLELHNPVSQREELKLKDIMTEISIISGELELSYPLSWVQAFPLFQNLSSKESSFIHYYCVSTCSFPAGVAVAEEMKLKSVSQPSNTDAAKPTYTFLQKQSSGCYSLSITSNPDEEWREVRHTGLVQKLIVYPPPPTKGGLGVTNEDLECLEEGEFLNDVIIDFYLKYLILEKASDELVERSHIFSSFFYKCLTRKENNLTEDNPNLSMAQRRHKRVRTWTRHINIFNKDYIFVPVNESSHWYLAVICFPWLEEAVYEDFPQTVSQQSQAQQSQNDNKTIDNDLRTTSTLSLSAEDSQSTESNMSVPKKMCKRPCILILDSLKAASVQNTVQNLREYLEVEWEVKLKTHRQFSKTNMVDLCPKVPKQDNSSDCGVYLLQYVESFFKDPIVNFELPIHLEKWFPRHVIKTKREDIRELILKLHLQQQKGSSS
The format is functional.

The target of assay [6] is T6, Sentrin-specific protease 6 (Homo sapiens, UniProt Q9GZR1).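 Further: Luminescence-based dose-response confirmatory assay of SENP6 inhibition, following up an ultra-high-throughput screen.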
T6 sequence (Q9GZR1 whole entry): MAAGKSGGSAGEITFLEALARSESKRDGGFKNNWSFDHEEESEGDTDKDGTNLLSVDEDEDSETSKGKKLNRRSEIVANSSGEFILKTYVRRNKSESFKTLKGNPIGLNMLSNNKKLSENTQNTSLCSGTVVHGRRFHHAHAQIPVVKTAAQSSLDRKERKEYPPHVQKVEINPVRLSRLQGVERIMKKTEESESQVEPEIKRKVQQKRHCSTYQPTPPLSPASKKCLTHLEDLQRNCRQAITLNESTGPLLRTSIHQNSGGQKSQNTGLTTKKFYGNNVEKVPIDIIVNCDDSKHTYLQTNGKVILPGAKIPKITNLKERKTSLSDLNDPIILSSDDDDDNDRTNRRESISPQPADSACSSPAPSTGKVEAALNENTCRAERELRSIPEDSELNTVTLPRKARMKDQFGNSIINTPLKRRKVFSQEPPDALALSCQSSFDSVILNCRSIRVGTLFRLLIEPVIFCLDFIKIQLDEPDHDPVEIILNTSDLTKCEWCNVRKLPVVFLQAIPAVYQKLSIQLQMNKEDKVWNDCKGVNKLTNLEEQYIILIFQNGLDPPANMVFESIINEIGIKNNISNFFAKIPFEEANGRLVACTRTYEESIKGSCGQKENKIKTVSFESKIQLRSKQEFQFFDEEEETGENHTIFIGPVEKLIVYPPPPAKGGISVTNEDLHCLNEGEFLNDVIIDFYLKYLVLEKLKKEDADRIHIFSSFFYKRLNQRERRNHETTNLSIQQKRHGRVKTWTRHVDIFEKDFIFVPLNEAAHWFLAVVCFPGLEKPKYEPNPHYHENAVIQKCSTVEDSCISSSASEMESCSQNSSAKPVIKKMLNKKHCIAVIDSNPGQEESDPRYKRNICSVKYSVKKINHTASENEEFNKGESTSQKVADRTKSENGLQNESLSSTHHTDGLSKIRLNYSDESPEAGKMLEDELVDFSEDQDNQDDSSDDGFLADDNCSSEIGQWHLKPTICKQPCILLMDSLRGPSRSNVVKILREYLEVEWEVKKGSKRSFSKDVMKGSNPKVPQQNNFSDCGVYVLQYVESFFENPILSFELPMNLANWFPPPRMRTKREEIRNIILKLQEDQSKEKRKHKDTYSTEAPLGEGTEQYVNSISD
The format is functional.

A short description of assay [7]: cells.
Assay [8] concerns the target Transthyretin (Homo sapiens, UniProt P02766). Nature of the assay: Luminescence-based cell-based high throughput dose response assay to identify activators of Transthyretin (TTR) transcription. The format is functional.
In assay [9] the target is Paired box protein Pax-8 (Homo sapiens, UniProt Q06710). The assay is described as follows: inhibitors of PAX8-driven TPO luciferase reporter, dose response, RMG-I cells, cherry-pick (AID 687027).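 Further: luciferase reporter driven by Pax8 target thyroperoxidase promoter measured by SteadyGlo luminescence.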 The format is functional, cell-based.
Chain of Paired box protein Pax-8 (Q06710 whole entry): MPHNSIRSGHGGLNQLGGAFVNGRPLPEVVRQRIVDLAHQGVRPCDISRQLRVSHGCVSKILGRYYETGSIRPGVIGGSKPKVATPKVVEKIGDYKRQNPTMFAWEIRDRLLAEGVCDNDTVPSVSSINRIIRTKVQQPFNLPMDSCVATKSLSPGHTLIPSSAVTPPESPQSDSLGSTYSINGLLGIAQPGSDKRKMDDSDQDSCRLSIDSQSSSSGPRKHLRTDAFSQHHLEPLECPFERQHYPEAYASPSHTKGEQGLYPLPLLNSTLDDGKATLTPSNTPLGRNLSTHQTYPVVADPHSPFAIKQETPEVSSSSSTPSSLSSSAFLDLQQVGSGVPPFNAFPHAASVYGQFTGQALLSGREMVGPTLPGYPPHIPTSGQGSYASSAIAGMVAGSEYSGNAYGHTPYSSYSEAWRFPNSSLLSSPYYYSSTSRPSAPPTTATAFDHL
The nature of assay [10]: inhibitors of PGC1a acetylation in cells, dose response, cell-based, cherry-picked samples (AID 720514).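 Further: potency may reflect raised or lowered acetylation signal.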 The format is functional.
Assay [11] is described as follows: P. falciparum Dd2 growth inhibitors, dose response, SYBR Green, cherry-picked samples (AID 1159567). It is filed as functional, cell-based.
The nature of assay [12]: P. falciparum Dd2 growth inhibitors, dose response, SYBR Green, dry powder samples (AID 1159566).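 Further: potency for growth inhibition with lower SYBR green DNA signal.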 The format is functional, cell-based.
Assay [13] can be described thus: P. falciparum 3D7-ScDHODH growth inhibitors, dose response, SYBR Green, dry powder samples (AID 1159570).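 Further: parasite growth measured after 72 hours of compound exposure.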 The format is functional, cell-based.
Assay [14] in a line: inhibitors of HIV Env-driven cell fusion, dose response, cherry-pick (AID 652057). It is filed as functional, cell-based.
Assay [15] is described as follows: P. falciparum ATP4 D1247Y mutant growth inhibitors, dose response, NITD609-resistant line, SYBR Green, dry powder (AID 1159571).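 Further: parasites synchronized at ring stage by sorbitol before testing.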 It is filed as functional, cell-based.
A short description of assay [16]: inhibitors of clade B AD8 Env fusion, dose response, cell-based, cherry-pick (AID 652062).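 Further: luciferase signal from cell-cell fusion driven by HIV-1 clade B AD8 Env; potency is for inhibitors of fusion seen as a drop in luminescence.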 The format is functional.
A short description of assay [17]: ZM109 Env clade C HIV-1 fusion inhibitors, dose response, HeLa effector, CEM target cells, luciferase, cherry-pick (AID 652058). It is filed as functional, cell-based.
Assay [18] is described as follows: control 3'UTR Renilla luciferase suppression, dose response, counter-screen for Shn3 inhibitor project, cell-based, Clone20-Shn3RL, cherry-picked (AID 624133). The format is functional. A general note: Counterscreens check selectivity or assay interference.
Assay [19] is described as follows: Shn3 3'UTR reporter inhibitors, dose response, cell-based, Clone20 osteoblasts, firefly luciferase, cherry-picked (AID 624132).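 Further: firefly luciferase luminescence from reporter carrying the Shn3 3'UTR in osteoblasts.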 It is filed as functional.
The test system of assay [20] is HeLa. Nature of the assay: HeLa cell cytotoxicity, dose response, cytotoxicity control, ATP luminescence, cherry-pick samples (AID 687004). It is filed as functional, cell-based. The following applies: Homo sapiens.
Assay [21] deals with Heat shock protein HSP 90-alpha (Homo sapiens, UniProt P07900). The format is functional, organism-based.
Assay [22] can be described thus: Fluorescence-based cell-based high throughput dose response assay for inhibitors of the interaction of nucleotide-binding oligomerization domain containing 2 (NOD2) and the receptor-interacting serine-threonine kinase 2 (RIPK2). It is filed as functional. The following applies: Homo sapiens.

Regarding `c1ccc(N2CC3CCc4ccccc4C3=N2)cc1` (stereo not drawn), the IC50 (commonly the concentration at which inhibition is half-maximal) was 23.3 µM (active) in [1], 58.4 µM (active) in assay [3], 5.67 µM (active) in assay [5] and 30.4 µM (active) in [6]. Also, the EC50 – broadly, the midpoint of the concentration-response curve – in assay [2] was 114 µM (active); in assay [4], > 67.5 µM (inactive); in assay [7], > 67.5 µM (inactive).
Take `CN(Cc1ccccc1)C(=O)c1[nH]cnc1C(=O)NCC(=O)OC(C)(C)C`: the EC50 in assay [8] was > 167 µM (inactive).
Regarding `Cc1ccc(S(=O)(=O)N(C)C[C@@H]2Oc3cc(C#Cc4ccncc4)ccc3S(=O)(=O)N([C@@H](C)CO)C[C@H]2C)cc1`, the AC50 (commonly the midpoint of the concentration-response curve, whichever way the signal moves) in assay [9] was 2.51 µM (active); in assay [10], 2.39 µM (active).
Regarding `COc1ccc(S(=O)(=O)Nc2ccc3c(c2)CC(=O)N([C@@H](C)CO)C[C@H](C)[C@H](CN(C)S(=O)(=O)c2ccc(C)cc2)O3)cc1`, the AC50 in [11] was 1.7 µM (active); in assay [12], 0.563 µM (active); in [13] it was 0.928 µM (active); in assay [14], 3.56 µM (active); in assay [15], 0.553 µM (active); in [16] it was 33.9 µM (active). Moreover, in assay [17], the concentration at half-maximal activity (AC50) was 23.8 µM (active).
In the case of `CC(=O)OC1(C)CC(C)C(=O)C(C(O)CC2CC(=O)NC(=O)C2)C1` (stereo not drawn), the AC50 in assay [18] was < 0.26 µM (active); in [19], < 0.26 µM (active); in assay [20], 14.5 µM (active); in assay [21], < 0.195 µM (active); in [10] it was < 0.16 µM (active). The IC50 in assay [22] was 49.8 µM (inactive).

The values above are taken from ChEMBL document CHEMBL1201862, “PubChem BioAssay data set” (2004).
